Laboratory results from article PMC2770570 (BMC Cancer, 2009).

Columns and labels:
Format in all cases: cell-based, human
OGFr protein = experiment: Semi-quantitative immunocytochemistry of OGFr protein after siRNA transfection of KAT-18 cells; settings: 72 h after transfection; mean staining intensity, approximately 50 cells/group (Fig. 4B)
Procedure: (§1) The OGFr-targeted siRNAs (antisense:5'-[…]-3'; sense: 5'-[…]-3') were designed and obtained as ready-annealed, purified duplex probes from Ambion (Austin, TX). For transfection, 5 × 10^4 KAT-18 cells per well were seeded in 6-well plates containing 1 ml of serum-containing media without antibiotics. In each well, 20 nM OGFr-siRNA or control siRNA solutions in serum-free media were added. […] At 72 h cells were collected for computing growth. Two independent experiments were conducted. The scrambled siRNAs were purchased from Ambion.
KAT-18 cells were seeded onto coverglasses, transiently transfected with OGFr-siRNA, and 72 h later stained with polyclonal antibodies to OGFr in order to detect the level of protein knockdown. OGFr protein levels were assessed by semi-quantitative immunocytochemistry whereby images were taken at the same exposure time with special care not to photobleach samples. The mean intensity of staining was determined for approximately 50 cells/group.

KAT-18 cells = experiment: Growth of KAT-18 cells transfected with OGFr siRNA or scrambled siRNA
Procedure: as §1

OGFr mRNA = experiment: Northern blot analysis of OGFr after siRNA transfection of KAT-18 cells; settings: 20 nM siRNA; OGFr/GAPDH ratio by densitometry (Fig. 4A)
Procedure: as §1
Some cultures were transfected with siRNAs and then harvested 72 h later for Northern analysis. Total RNA was extracted using the Paris Kit (Ambion), separated on an agarose gel, and mRNA transferred to nylon membrane (Immobilon, Bio-Rad Laboratories, Hercules, CA). Membranes were probed with ^32P-dCTP- OGFr cDNA. To determine equal loading, blots were stripped and reprobed with radiolabeled GAPDH and optical density of each band was determined by densitometry and analyzed by QuickOne (Bio-Rad Laboratories). Each value was normalized to GAPDH from the same blot.

## antisense:5'-uagaaacucagguuuggcg-3'; sense: 5'-cgccaaaccugaguuucua-3' (sense CGCCAAACCUGAGUUUCUA; antisense UAGAAACUCAGGUUUGGCG; chemistry not fully specified) [OGFr siRNA, OGFr-targeted siRNAs, ready-annealed, purified duplex probes from Ambion]
OGFr protein
  decrease in OGFr protein expression relative to untransfected and scrambled siRNA cells: 47%
KAT-18 cells; 20 nM siRNA, 72 h (Fig. 4C)
  increase in cell number vs vehicle only and scrambled siRNA: approximately 70%
KAT-18 cells; KAT-18 cells
  effectiveness of OGFr siRNA knockdown in increasing cell number relative to NTX: over twice as effective
OGFr mRNA
  OGFr level relative to cells treated with vehicle only: less than 25%
